# Data reported in USRE47689E1, “Compounds for treating spinal muscular atrophy” (PTC Therapeutics, Inc., priority 2011, dated 2019).
# Key:
# [1] = system: SMN2 minigene (full length SMN2 minigene mRNA containing SMN2 exon 7); assay: SMN2 minigene mRNA splicing RT-qPCR assay in cultured cells; assay type: cell-based, human; conditions: Homo sapiens, HEK293-H; HEK293H cells stably transfected with SMN2-A minigene; 24 hours; 7-point concentration curve; 1.5-fold relative to vehicle-treated cells; read-out: EC1.5x for production of full length SMN2 mRNA
# How it was run: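 Read-out: full-length (exon 7-included) SMN2 minigene mRNA by multiplex RT-qPCR with GAPDH, efficiency-corrected (1+E)^−Ct, GAPDH-normalized and divided by vehicle. Stably transfected HEK293H cells, 24 h compound exposure, duplicates per concentration. Value is EC1.5x, reported as star ranges.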
# Smn protein = Smn protein assay in cultured cells (SMN HTRF); assay type: cell-based, human; conditions: 48 hours; for EC1.5x (concentration giving 1.5-fold Smn protein increase): SMA Type 1 patient fibroblast cells (GM03813), 7-point concentration curve, SMN HTRF, concentration producing 1.5 times Smn protein vs DMSO vehicle control, read-out: EC1.5x for Smn protein expression; for maximum fold (Fold) increase of Smn protein: SMA patient fibroblast cells, 7-point concentration data, fold increase relative to vehicle control (SMN HTRF)
# How it was run: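 Lysates in RIPA with protease inhibitors are incubated overnight at room temperature with HTRF anti-SMN antibodies. EC1.5x is derived from fold increase in ΔF over vehicle.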
Structure (SMILES),melting point,EC (1.5-fold) [1],EC1.5x (concentration giving 1.5-fold Smn protein increase) (Smn protein),maximum fold (Fold) increase of Smn protein (Smn protein)
"C[C@@H]1CN(c2ccc3cc(-c4nc(C(F)(F)F)cs4)c(=O)oc3c2)CCN1 [Compound 240, 7-[(3R)-3-methylpiperazin-1-yl]-3-[4-(trifluoromethyl)-1,3-thiazol-2-yl]-2H-chromen-2-one]",234 to 238 °C,1 to 3 µM,–,* (maximum fold increase of ≤1.2)
"C[C@@H]1CN(c2ccc3cc(-c4cn5cccnc5n4)c(=O)oc3c2)C[C@H](C)N1 [Compound 107, 7-[(3R,5S)-3,5-dimethylpiperazin-1-yl]-3-(imidazo[1,2-a]pyrimidin-2-yl)-2H-chromen-2-one]",256 to 258 °C,0.1 to 0.3 µM,300 to 1000 nM,**** (fold increase between >1.5 and ≤1.65)
"CCN1CCC(c2ccc3cc(-c4ccc5nn(C)cc5c4)c(=O)oc3c2)CC1 [Compound 863, 7-(1-ethylpiperidin-4-yl)-3-(2-methyl-2H-indazol-5-yl)-2H-chromen-2-one]",196 to 198 °C,0.1 to 0.3 µM,300 to 1000 nM,***** (fold increase >1.65)
"O=c1oc2cc(N3CCCNCC3)cc(F)c2cc1-c1nc2ccccc2[nH]1 [Compound 374, 3-(1H-benzimidazol-2-yl)-7-(1,4-diazepan-1-yl)-5-fluoro-2H-chromen-2-one]",236 to 242 °C,1 to 3 µM,–,* (maximum fold increase of ≤1.2)
"Cc1cn2cc(-c3cc4ccc(C5CCN(C)CC5)cc4oc3=O)ccc2n1 [Compound 826, 3-(2-methylimidazo[1,2-a]pyridin-6-yl)-7-(1-methylpiperidin-4-yl)-2H-chromen-2-one]",204 to 206 °C,< 0.1 µM,< 300 nM,***** (fold increase >1.65)
"CN1CCN(c2ccc3cc(-c4nc(-c5ccccc5)cs4)c(=O)oc3c2)CC1 [Compound 45, 7-(4-methylpiperazin-1-yl)-3-(4-phenyl-1,3-thiazol-2-yl)-2H-chromen-2-one]",205 to 210 °C,3 to 30 µM,–,* (maximum fold increase of ≤1.2)
"CCc1cc(C)cn2cc(-c3cc4ccc(N5CCNCC5)cc4oc3=O)nc12 [Compound 334, 3-(8-ethyl-6-methylimidazo[1,2-a]pyridin-2-yl)-7-(piperazin-1-yl)-2H-chromen-2-one]",198 to 208 °C,0.1 to 0.3 µM,–,* (maximum fold increase of ≤1.2)
"Cc1cc(Cl)cn2cc(-c3cc4ccc(N5CCNCC5)cc4oc3=O)nc12 [Compound 263, 3-(6-chloro-8-methylimidazo[1,2-a]pyridin-2-yl)-7-(piperazin-1-yl)-2H-chromen-2-one]",224 to 233 °C,3 to 30 µM,–,* (maximum fold increase of ≤1.2)
"CC(C)N1CCN(c2ccc3cc(-c4nc5ccccc5s4)c(=O)oc3c2)CC1 [Compound 15, 3-(1,3-benzothiazol-2-yl)-7-[4-(propan-2-yl)piperazin-1-yl]-2H-chromen-2-one]",238 to 246 °C,3 to 30 µM,–,* (maximum fold increase of ≤1.2)
"Cl.O=c1oc2cc(N3CCNCC3)ccc2cc1-c1nc2c(Cl)cccc2o1 [Compound 70, 3-(4-chloro-1,3-benzoxazol-2-yl)-7-(piperazin-1-yl)-2H-chromen-2-one hydrochloride]",278 to 282 °C,0.3 to 1 µM,–,* (maximum fold increase of ≤1.2)
"C[C@H]1CN(c2ccc3cc(-c4cn5cc(C6CC6)cc(F)c5n4)c(=O)oc3c2)CCN1 [Compound 498, 3-(6-cyclopropyl-8-fluoroimidazo[1,2-a]pyridin-2-yl)-7-[(3S)-3-methylpiperazin-1-yl]-2H-chromen-2-one]",254 to 263 °C,0.3 to 1 µM,–,* (maximum fold increase of ≤1.2)
"Cc1cccc2oc(-c3cc4ccc(N5C[C@@H](C)N[C@@H](C)C5)cc4oc3=O)nc12 [Compound 31, 7-[(3R,5S)-3,5-dimethylpiperazin-1-yl]-3-(4-methyl-1,3-benzoxazol-2-yl)-2H-chromen-2-one]",243 to 245 °C,3 to 30 µM,–,* (maximum fold increase of ≤1.2)
"CN1CCCN(c2ccc3cc(-c4nc(C(F)(F)F)cs4)c(=O)oc3c2)CC1 [Compound 238, 7-(4-methyl-1,4-diazepan-1-yl)-3-[4-(trifluoromethyl)-1,3-thiazol-2-yl]-2H-chromen-2-one]",218 to 225 °C,1 to 3 µM,–,* (maximum fold increase of ≤1.2)
"Cc1ccc2nc(-c3cc4ccc(N5CCN[C@@H](C)C5)cc4oc3=O)cn2n1 [Compound 624, 3-(6-methylimidazo[1,2-b]pyridazin-2-yl)-7-[(3S)-3-methylpiperazin-1-yl]-2H-chromen-2-one]",208 to 212 °C,< 0.1 µM,–,*** (fold increase between >1.35 and ≤1.5)
"C[C@@H]1CN(c2ccc3cc(-c4cn5cccc(F)c5n4)c(=O)oc3c2)C[C@H](C)N1 [Compound 338, 7-[(3R,5S)-3,5-dimethylpiperazin-1-yl]-3-(8-fluoroimidazo[1,2-a]pyridin-2-yl)-2H-chromen-2-one]",176 to 180 °C,0.1 to 0.3 µM,3000 to 10000 nM,** (fold increase between >1.2 and ≤1.35)

# Now from value to compound, other results behind:
melting point,Structure (SMILES),EC (1.5-fold) [1],EC1.5x (concentration giving 1.5-fold Smn protein increase) (Smn protein),maximum fold (Fold) increase of Smn protein (Smn protein)
182 to 185 °C,"Cc1cn2cc(-c3cc4ccc(CCCN5CCC[C@@H]5CO)cc4oc3=O)nc2c(C)n1 [Compound 883, 3-(6,8-dimethylimidazo[1,2-a]pyrazin-2-yl)-7-{3-[(2R)-2-(hydroxymethyl)pyrrolidin-1-yl]propyl}-2H-chromen-2-one]",< 0.1 µM,< 300 nM,***** (fold increase >1.65)
221 to 226 °C,"Cc1cc(C)c2nc(-c3cc4ccc(N5CCN[C@@H](C)C5)cc4oc3=O)cn2c1 [Compound 425, 3-(6,8-dimethylimidazo[1,2-a]pyridin-2-yl)-7-[(3S)-3-methylpiperazin-1-yl]-2H-chromen-2-one]",0.1 to 0.3 µM,1000 to 3000 nM,*** (fold increase between >1.35 and ≤1.5)
206 to 208 °C,"Cc1cn2cc(-c3cc4ccc(N5CC[C@H](CN(C)C)C5)cc4oc3=O)nc2c(C)n1 [Compound 965, 7-{(3R)-3-[(dimethylamino)methyl]pyrrolidin-1-yl}-3-(6,8-dimethylimidazo[1,2-a]pyrazin-2-yl)-2H-chromen-2-one]",< 0.1 µM,< 300 nM,*** (fold increase between >1.35 and ≤1.5)
170 to 174 °C,"CC(=O)O.CC(=O)O.CC[C@H]1CN(c2ccc3cc(-c4cn5cc(C)nc(C)c5n4)c(=O)oc3c2)CCN1CC [Compound 779, 7-[(3S)-3,4-diethylpiperazin-1-yl]-3-(6,8dimethylimidazo[1,2-a]pyrazin-2-yl)-2H-chromen-2-one acetate (1:2)]",< 0.1 µM,< 300 nM,***** (fold increase >1.65)
156 to 160 °C,"Cc1cn2cc(-c3cc4ccc(CCCCN(C)CCO)cc4oc3=O)nc2c(C)n1 [Compound 903, 3-(6,8-dimethylimidazo[1,2-a]pyrazin-2-yl)-7-{4-[(2-hydroxyethyl)(methyl)amino]butyl}-2H-chromen-2-one]",< 0.1 µM,300 to 1000 nM,**** (fold increase between >1.5 and ≤1.65)
246 to 253 °C,"Cc1cn2cc(-c3cc4ccc(N5C[C@@H]6CCCN[C@@H]6C5)cc4oc3=O)nc2c(C)n1 [Compound 794, 3-(6,8-dimethylimidazo[1,2-a]pyrazin-2-yl)-7-[(4aS,7aS)-octahydro-6H-pyrrolo[3,4-b]pyridin-6-yl]-2H-chromen-2-one]",< 0.1 µM,< 300 nM,**** (fold increase between >1.5 and ≤1.65)
226 to 233 °C,"Cc1cn2cc(-c3cc4ccc(N[C@@H]5CCN(C)C5)cc4oc3=O)nc2c(C)n1 [Compound 730, 3-(6,8-dimethylimidazo[1,2-a]pyrazin-2-yl)-7-{[(3R)-1-methylpyrrolidin-3-yl]amino}-2H-chromen-2-one]",< 0.1 µM,–,*** (fold increase between >1.35 and ≤1.5)
252 to 262 °C,"Cc1cn2cc(-c3cc4ccc(N5C[C@@H]6CCN(C)[C@@H]6C5)cc4oc3=O)nc2c(C)n1 [Compound 706, 3-(6,8-dimethylimidazo[1,2-a]pyrazin-2-yl)-7-[(3aS,6aS)-1-methylhexahydropyrrolo[3,4-b]pyrrol-5(1H)-yl]-2H-chromen-2-one]",< 0.1 µM,300 to 1000 nM,**** (fold increase between >1.5 and ≤1.65)
